{
  "source": "paper PMC8009478",
  "about": "“Novel Curcumin-Diethyl Fumarate Hybrid as a Dualistic GSK-3β Inhibitor/Nrf2 Inducer for the Treatment of Parkinson’s Disease” (ACS Chemical Neuroscience, 2020)",
  "key": {"Nrf2/ARE": {"system": "Nrf2/ARE", "test": "Nrf2/ARE binding activity, ELISA (TransAM Nrf2 Kit)", "type": "cell-based, human", "conditions": "6 h; for Nrf2/ARE binding activity: 5 μM; for Nrf2/ARE effect compared to DMF: compounds and DMF at 5 μM", "procedure": "In light of these findings, 4 and 5 emerged as the most promising to be further studied regarding their effect on the Nrf2/ARE pathway. […] The maximum ratio between nuclear and cytosolic Nrf2 levels was detected after a 3 h treatment for both compounds, while a slight reduction was observed after 6 h.\nFigure 5 Effects of compounds 4 and 5 on the Nrf2/ARE signaling pathway (A and B) and NQO1 gene expression (C) in SH-SY5Y cells. (A) Cells were treated with compounds 4 and 5 (5 μM) for different times (1, 3, and 6 h). Translocation of Nrf2 from the cytosol to the nucleus was evaluated by Western blotting. Data are expressed as a ratio between nuclear Nrf2 and cytoplasmic Nrf2 levels and reported as mean ± SEM of at least three independent experiments. (B) Cells were treated with compounds 4 and 5 (5 μM) and DMF (5 μM) for 6 h. The Nrf2/ARE binding activity was determined by an ELISA assay. Results are expressed as fold increase versus untreated cells and reported as mean ± SEM of at least three independent experiments (** p < 0.01 and * p < 0.05 versus untreated cells at the t-test). (C) Cells were treated with compounds 4 and 5 (5 μM) for different times (6, 12, and 24 h). The NQO1 expression was determined by RT-PCR. Results are expressed as the relative normalized expression and reported as mean ± SEM of at least three independent experiments (*** p < 0.001 versus untreated cells at one-way ANOVA with the Dunnett post hoc test).\nThe levels of active Nrf2 protein were determined on the nuclear extracts (10 μg, see above) by using the DNA-binding ELISA TransAM Nrf2 Kit (Active Motif), according to the manufacturer’s guidelines. In detail, the kit comprises a primary antibody able to recognize an epitope on Nrf2 protein upon ARE binding. In the treated cells, the amount of active Nrf2 protein is expressed as a fold increase in comparison to the corresponding untreated cells."}, "[1]": {"system": "C. elegans BY250 [vtIs7 (Pdat-1:GFP)] CEP neurons", "test": "6-OHDA-induced neurodegeneration of CEP neurons in the C. elegans model of PD", "type": "in vivo, Caenorhabditis elegans", "conditions": "cotreatment 5 μM with 6-OHDA 5 mM for 30 min, scored after 72 h", "text": "The nematode Caenorhabditis elegans (C. elegans) has been increasingly employed as a genetically tractable in vivo model to study the molecular mechanisms involved in several NDDs due to a short life cycle, fast reproduction, and a highly conserved inheritance (genetic basis).[35] This invertebrate model offers the opportunity to take advantage of the significant conservation of genes and metabolic pathways common to both invertebrates and humans. At the neuronal level, the adult wild-type C. elegans organism contains only eight DA neurons that repeat the features of DA neurons of mammalian, making it possible to simplify the investigations considerably. In the transgenic BY250 [vtIs7 (Pdat-1:GFP)] strain, six DA neurons in the head, namely the four sensory cephalic (CEP) and the two anterior deirid (ADE) neurons, express the green fluorescent protein (GFP) and can be clearly visualized by fluorescence microscopy analysis and thus scored over time.[36] Indeed, in this model, investigations of DA neurons degeneration in vivo are feasible through a first exposition of the nematode to PD-inducing toxin, namely 6-OHDA, followed by direct visualization of the GFP-labeled DA neurons.[37] It is thus possible to screen small molecules for their anti-PD potential, in terms of rescue of the DA neurodegeneration phenotype manifested upon neurotoxin exposure, through visualization and scoring of the alterations of CEP neuron count or neuronal morphology. […] This effect makes it possible the identification of neuroprotective agents with the ability to activate Nrf2 through the inhibition of GSK-3.[38] The curcumin-DEF hybrids 4 and 5 were investigated in the above C. elegans model for their protective effects on 6-OHDA-induced degeneration of a subclass of DA neurons. Animals were incubated with 5 μM concentration of 4 and 5, in the presence of 5 mM of 6-OHDA, for 30 min. After 72 h, the animals were studied by examining the four CEP neurons. Degenerating CEP neurons were morphologically analyzed and quantified (Figure 8). We recorded that in animals treated with 6-OHDA, 68% of CEP neurons degenerated.\nFigure 8 Effects of 4 and 5 on 6-OHDA-induced neurodegeneration in C. elegans. Animals were treated with 4 or 5 (5 μM) in the presence of 6-OHDA (5 mM) for 30 min. At the end of incubation, treated animals were placed on fresh agar plates for 72 h and then visualized as described in the Materials and Methods section. (A) In nontreated vtIs7 [pdat-1::GFP] transgenic animals, dopaminergic neurons express GFP, with two of the four CEP cell bodies (white arrows) and relative dendrites (arrowheads) visible in this focal plane in the head. (B) 6-OHDA treatment causes the degeneration of CEP dendrites (empty arrowheads) and two cell bodies (gray arrows), in treated animals. The other two CEP neurons are not visible anymore. (C) Compound 5 cotreatment partially rescues the 6-OHDA-induced toxic effects, with degeneration of one of the CEP dendrites (empty arrowhead) but not the other (arrowhead) and with one CEP cell body still viable (white arrow) and one dying (gray arrow) in this focal plane. […] ADE neurons, which are less affected by 6-OHDA treatment, are also visible but were not scored (asterisks). (D) Quantification of degenerating CEP neurons. Data are expressed as percentages of degenerating neurons and reported as mean ± SEM of at least three independent experiments. […]"}, "PAMPA-BBB assay": {"test": "PAMPA-BBB assay", "conditions": "for prediction (penetration in the CNS): from PAMPA-BBB Pe; for Papp at 2.5 h: pig, PAMPA, pH 7.4"}},
  "data": [
    {"molecule": "CCOC(=O)/C=C/C(C(=O)/C=C/c1ccc(OC)cc1)=C(O)\\C=C\\c1ccc(OCc2ccccc2)cc1", "note": "[Compound 5, Ethyl (2E,4Z,6E)-7-(4-(Benzyloxy)phenyl)-5-hydroxy-4-((E)-3-(4-methoxyphenyl)acryloyl)hepta-2,4,6-trienoate]", "values": [
      {"measurement": "Nrf2/ARE binding activity", "setting": "Nrf2/ARE", "result": "increase in Nrf2/ARE binding activity"},
      {"measurement": "Nrf2/ARE effect compared to DMF", "setting": "Nrf2/ARE", "result": "superior effects to DMF"},
      {"measurement": "degenerating CEP neurons", "setting": "[1]", "result": 55, "unit": "%"},
      {"measurement": "rescue of the 6-OHDA-induced degeneration phenotype", "setting": "[1]", "result": "partial rescue"},
      {"measurement": "prediction (penetration in the CNS)", "setting": "PAMPA-BBB assay", "result": "CNS + (compounds showing a Pe value superior to 2.26 × 10^–6 cm s^–1 could be regarded as able to permeate the brain compartment and thus classified as (CNS +))"},
      {"measurement": "Papp at 2.5 h", "setting": "PAMPA-BBB assay", "result": "4.8 ± 0.4", "unit": "×10⁻⁶ cm/s"}
    ]},
    {"molecule": "CCOC(=O)/C=C/C(C(=O)/C=C/c1ccc(OC)cc1)=C(O)\\C=C\\c1ccc(OC)cc1", "note": "[Compound 4, Ethyl (2E,4Z,6E)-5-Hydroxy-7-(4-methoxyphenyl)-4-((E)-3-(4-methoxyphenyl)acryloyl)hepta-2,4,6-trienoate]", "values": [
      {"measurement": "Nrf2/ARE binding activity", "setting": "Nrf2/ARE", "result": "increase in Nrf2/ARE binding activity"},
      {"measurement": "Nrf2/ARE effect compared to DMF", "setting": "Nrf2/ARE", "result": "superior effects to DMF"},
      {"measurement": "degenerating CEP neurons", "setting": "[1]", "result": 67, "unit": "%"},
      {"measurement": "rescue of the 6-OHDA-induced degeneration phenotype", "setting": "[1]", "result": "no rescue"},
      {"measurement": "prediction (penetration in the CNS)", "setting": "PAMPA-BBB assay", "result": "CNS + (compounds showing a Pe value superior to 2.26 × 10^–6 cm s^–1 could be regarded as able to permeate the brain compartment and thus classified as (CNS +))"},
      {"measurement": "Papp at 2.5 h", "setting": "PAMPA-BBB assay", "result": "2.5 ± 0.3", "unit": "×10⁻⁶ cm/s"}
    ]}
  ]
}
